The record followed here is patent US9255090B2, “Heterocyclyl derivatives and their use as prostaglandin D2 receptor modulators” (Actelion Pharmaceuticals Ltd., priority 2012, dated 2016).

The structures appear in SMILES notation.

This test has as its target hCRTH2 receptor (Homo sapiens (Human), UniProt Q9Y5Y4). Description: hCRTH2 receptor membranes radioligand (3H-PGD2) displacement assay. To be noted: 3H-PGD2 radioligand displacement, HEK293-hCRTH2 membranes. The format is binding. The method, boiled down: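 HEK293-hCRTH2 membranes, 20 μg/well; 3H-PGD2 added at 2.5 nM; binding buffer 50 mM Tris, 10 mM MnCl2, 1 mM EDTA, pH 7.0; 90 min RT; GF/C filtration, scintillation count. Nonspecific binding: PGD2 at […].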
(In a radioligand displacement assay an active substance lowers the binding of a labelled ligand.)

Sequence of hCRTH2 receptor (Q9Y5Y4 whole entry): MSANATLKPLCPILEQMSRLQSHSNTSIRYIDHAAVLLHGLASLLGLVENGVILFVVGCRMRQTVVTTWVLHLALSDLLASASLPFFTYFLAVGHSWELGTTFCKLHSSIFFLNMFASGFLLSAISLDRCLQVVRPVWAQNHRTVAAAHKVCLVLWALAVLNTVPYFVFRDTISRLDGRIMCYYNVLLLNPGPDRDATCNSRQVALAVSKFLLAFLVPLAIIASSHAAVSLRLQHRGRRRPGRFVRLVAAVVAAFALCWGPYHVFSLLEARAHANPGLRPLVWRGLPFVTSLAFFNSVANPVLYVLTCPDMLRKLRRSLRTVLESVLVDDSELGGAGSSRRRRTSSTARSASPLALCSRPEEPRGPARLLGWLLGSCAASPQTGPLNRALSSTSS

As for `CCOc1cc(CC(=O)O)ccc1-c1ccc(F)c2c1CN(C(=O)CCc1cccc(F)c1)CC2` [Example 316, (3-Ethoxy-4-{5-fluoro-2-[3-(3-fluoro-phenyl)-propionyl]-1,2,3,4-tetrahydro-isoquinolin-8-yl}-phenyl)-acetic acid], the IC50 (usually the concentration that inhibits the measured activity by half) is 2.1 nM.

Compound `CCOc1ccc(CC(=O)O)cc1-c1ccc(F)c2c1CN(C(=O)C1CCc3cccc(OC)c3C1)CC2` (racemic) [Example 333] showed an IC50 of 22.7 nM.

The compound `COc1ccc(CC(=O)O)cc1-c1ccc(OC)c2c1CN(C(=O)OCc1ccccc1)CC2` [Example 156, 8-(5-Carboxymethyl-2-methoxy-phenyl)-5-methoxy-3,4-dihydro-1H-isoquinoline-2-carboxylic acid benzyl ester] had a half-inhibitory concentration (IC50) of 251 nM.

Regarding `COc1ccc(CC(=O)O)cc1-c1ccc(F)c2c1CN(C(=O)CC(C)c1cccnc1)CC2` (racemic) [Example 266, (±)-{3-[5-Fluoro-2-(3-pyridin-3-yl-butyryl)-1,2,3,4-tetrahydro-isoquinolin-8-yl]-4-methoxy-phenyl}-acetic acid formiate], the IC50 is 32.7 nM.

Compound `COc1ccc(CC(=O)O)cc1-c1ccc(F)c2c1CN(C(=O)C(C)Cc1ccccc1)CC2` (racemic) [Example 109, (±)-{3-[5-Fluoro-2-(2-methyl-3-phenyl-propionyl)-1,2,3,4-tetrahydro-isoquinolin-8-yl]-4-methoxy-phenyl}-acetic acid] showed an IC50 of 28.9 nM.

Consider `CC(C)Oc1cc(CC(=O)O)ccc1-c1ccc(F)c2c1CN(C(=O)CC(C)(C)c1ccccc1)CC2` [Example 354, {4-[5-Fluoro-2-(3-methyl-3-phenyl-butyryl)-1,2,3,4-tetrahydro-isoquinolin-8-yl]-3-isopropoxy-phenyl}-acetic acid], for which the IC50 was 4.2 nM.

`CC(C)c1cc(CC(=O)O)ccc1-c1ccc(F)c2c1CN(C(=O)OCc1ccccc1)CC2` [Example 216, 8-(4-Carboxymethyl-2-isopropyl-phenyl)-5-fluoro-3,4-dihydro-1H-isoquinoline-2-carboxylic acid benzyl ester] showed an IC50 of 19.4 nM. This IC50 is about 4.6-fold higher than that of the compound before.

The compound `O=C(O)Cc1ccc(-c2ccc(F)c3c2CN(C(=O)CC2CCOc4ccccc42)CC3)c(OCC(F)(F)F)c1` (racemic) [Example 285] yielded an IC50 of 3.5 nM.

Take `COc1cc(CC(=O)O)ccc1-c1ccc(F)c2c1CN(C(=O)CCOc1ccc(F)cc1)CC2` [Example 192, (4-{5-Fluoro-2-[3-(4-fluoro-phenoxy)-propionyl]-1,2,3,4-tetrahydro-isoquinolin-8-yl}-3-methoxy-phenyl)-acetic acid]: the IC50 was 0.69 nM. This IC50 is about 5.1-fold lower than that of the compound before.

`COc1ccc(CC(=O)O)cc1-c1ccc(Cl)c2c1CN(C(=O)CCc1c(C)[nH]c3ccccc13)CC2` [Example 79, (3-{5-Chloro-2-[3-(2-methyl-1H-indol-3-yl)-propionyl]-1,2,3,4-tetrahydro-isoquinolin-8-yl}-4-methoxy-phenyl)-acetic acid] returned an IC50 of 37.8 nM. This IC50 lies about 55-fold higher than the previous one.

Compound `COc1ccc(CC(=O)O)cc1-c1ccc(Cl)c2c1CN(C(=O)CCc1ccccc1)CC2` [Example 76, {3-[5-Chloro-2-(3-phenyl-propionyl)-1,2,3,4-tetrahydro-isoquinolin-8-yl]-4-methoxy-phenyl}-acetic acid] had an IC50 of 43.1 nM.

Consider `COc1cc(OCC(=O)O)ccc1-c1ccc(F)c2c1CN(C(=O)OCc1ccccc1)CC2` [Example 424, 8-(4-Carboxymethoxy-2-methoxy-phenyl)-5-fluoro-3,4-dihydro-1H-isoquinoline-2-carboxylic acid benzyl ester], for which the IC50 turned out to be 444 nM.

`O=C(O)Cc1ccc(OCCF)c(-c2ccc(F)c3c2CN(C(=O)[C@@H]2C[C@H]2c2ccccc2)CC3)c1` [Example 427, {4-(2-Fluoro-ethoxy)-3-[5-fluoro-2-((1R,2R)-2-phenyl-cyclopropanecarbonyl)-1,2,3,4-tetrahydro-isoquinolin-8-yl]-phenyl}-acetic acid] had an IC50 of 3.1 nM.

For `CCOc1cc(CC(=O)O)ccc1-c1ccc(F)c2c1CN(C(=O)CC1CC(C)(C)Oc3ccccc31)CC2` (racemic) [Example 323], the half-inhibitory concentration (IC50) worked out at 1.8 nM.

`CCOc1cc(CC(=O)O)ccc1-c1ccc(F)c2c1CN(C(=O)CC1COc3ccccc3C1)CC2` (racemic) [Example 324]: the IC50 is 0.9 nM.

`O=C(O)COc1ccc(Cl)c(-c2cccc3c2CN(C(=O)OCc2ccccc2)CC3)c1` [Example 181, 8-(5-Carboxymethoxy-2-chloro-phenyl)-3,4-dihydro-1H-isoquinoline-2-carboxylic acid benzyl ester] showed an IC50 of 123 nM. This IC50 is about 140-fold higher than that of the compound before.

Take `COc1ccc(CC(=O)O)cc1-c1ccc(F)c2c1CN(C(=O)[C@@H]1C[C@H]1c1ccccc1F)CC2` [Example 66, (3-{5-Fluoro-2-[(1R,2R)-2-(2-fluoro-phenyl)-cyclopropanecarbonyl]-1,2,3,4-tetrahydro-isoquinolin-8-yl}-4-methoxy-phenyl)-acetic acid]: the IC50 amounted to 1.77 nM.

In turn, `CCOc1cc(CC(=O)O)ccc1-c1ccc(F)c2c1CN(C(=O)[C@@H]1C[C@H]1c1ccccc1)CC2` [Example 231, {3-Ethoxy-4-[5-fluoro-2-((1R,2R)-2-phenyl-cyclopropanecarbonyl)-1,2,3,4-tetrahydro-isoquinolin-8-yl]-phenyl}-acetic acid] yielded a half-maximal inhibitory concentration (IC50) of 10.5 nM.

`CCOc1ccc(CC(=O)O)cc1-c1ccc(F)c2c1CN(C(=O)/C=C/c1ccccn1)CC2` [Example 336, {4-Ethoxy-3-[5-fluoro-2-((E)-3-pyridin-2-yl-acryloyl)-1,2,3,4-tetrahydro-isoquinolin-8-yl]-phenyl}-acetic acid] gave an IC50 of 3.8 nM.

With `COc1ccc(CC(=O)O)cc1-c1ccc(F)c2c1CN(C(=O)OCc1cc(C)nn1C)CC2` [Example 149, 8-(5-Carboxymethyl-2-methoxy-phenyl)-5-fluoro-3,4-dihydro-1H-isoquinoline-2-carboxylic acid 2,5-dimethyl-2H-pyrazol-3-ylmethyl ester], the IC50 stood at 6.87 nM.

For `CCOc1ccc(CC(=O)O)cc1-c1ccc(F)c2c1CN(C(=O)CC(CC)c1ccccn1)CC2` (racemic) [Example 308], the 50% inhibitory concentration (IC50) came to 13.1 nM. This IC50 lies about 1.9-fold higher than the previous one.

Compound `COc1ccc(CC(=O)O)cc1-c1ccc(F)c2c1CN(C(=O)C1CCc3cccc(OC)c3C1)CC2` (racemic) [Example 241] returned an IC50 of 8.3 nM.

Consider `CCOc1ccc(CC(=O)O)cc1-c1ccc(F)c2c1CN(C(=O)CC(C)c1ccc(F)cc1)CC2` (centres unmarked) [Example 212, (4-Ethoxy-3-{5-fluoro-2-[3-(4-fluoro-phenyl)-butyryl]-1,2,3,4-tetrahydro-isoquinolin-8-yl}-phenyl)-acetic acid], for which the IC50 is 11.4 nM. This IC50 and that of the compound before are within 1.5-fold of each other.

As to `COc1ccc(CC(=O)O)cc1-c1ccc(F)c2c1CN(C(=O)C1CCOc3ccccc31)CC2` (racemic) [Example 272], the IC50 is 262 nM.

`O=C(O)Cc1cc(Cl)cc(-c2ccc(F)c3c2CN(C(=O)OCc2ccccc2)CC3)c1` [Example 19, 8-(3-Carboxymethyl-5-chloro-phenyl)-5-fluoro-3,4-dihydro-1H-isoquinoline-2-carboxylic acid benzyl ester] gave an IC50 of 20.2 nM.

`CCOc1cc(CC(=O)O)ccc1-c1ccc(F)c2c1CN(C(=O)CCc1ccc(F)cc1)CC2` [Example 315, (3-Ethoxy-4-{5-fluoro-2-[3-(4-fluoro-phenyl)-propionyl]-1,2,3,4-tetrahydro-isoquinolin-8-yl}-phenyl)-acetic acid] showed an IC50 of 5.1 nM.

In turn, `COc1ccc(/C=C/C(=O)N2CCc3c(F)ccc(-c4cc(CC(=O)O)ccc4OC)c3C2)cn1` [Example 86, (3-{5-Fluoro-2-[(E)-3-(6-methoxy-pyridin-3-yl)-acryloyl]-1,2,3,4-tetrahydro-isoquinolin-8-yl}-4-methoxy-phenyl)-acetic acid] gave an IC50 of 70.5 nM. Against the preceding compound, the IC50 is about 14-fold higher.

In turn, `O=C(O)Cc1ccc(OCC(F)(F)F)c(-c2ccc(F)c3c2CN(C(=O)CC2CCOc4ccccc42)CC3)c1` (racemic) [Example 299] registered an IC50 of 14.8 nM. Against the preceding compound, the IC50 is about 4.8-fold lower.

Turning to `COc1ccc(CC(=O)O)cc1-c1ccc(F)c2c1CN(C(=O)C[C@H](C)c1ccccc1)CC2` [Example 107, {3-[5-Fluoro-2-((S)-3-phenyl-butyryl)-1,2,3,4-tetrahydro-isoquinolin-8-yl]-4-methoxy-phenyl}-acetic acid], the IC50 was 18.3 nM.

On to `CCOCC(=O)N1CCc2c(F)ccc(-c3cc(CC(=O)O)ccc3OC)c2C1` [Example 46, {3-[2-(2-Ethoxy-acetyl)-5-fluoro-1,2,3,4-tetrahydro-isoquinolin-8-yl]-4-methoxy-phenyl}-acetic acid], for which the IC50 amounted to 774 nM.

For the compound `COc1ccc(CC(=O)O)cc1-c1ccc(F)c2c1CN(C(=O)OCc1ccnn1C)CC2` [Example 148, 8-(5-Carboxymethyl-2-methoxy-phenyl)-5-fluoro-3,4-dihydro-1H-isoquinoline-2-carboxylic acid 2-methyl-2H-pyrazol-3-ylmethyl ester], the IC50 was found to be 51.6 nM. Compared with the last compound, the IC50 is about 15-fold lower.

Consider `CC(C)Oc1ccc(CC(=O)O)cc1-c1ccc(F)c2c1CN(C(=O)CC1CCOc3ccccc31)CC2` (racemic) [Example 290], for which the IC50 turned out to be 5 nM. Against the preceding compound, the IC50 is about 10-fold lower.

On to `O=C(O)Cc1cccc(-c2ccc(F)c3c2CN(C(=O)OCc2ccccc2)CC3)c1F` [Example 16, 8-(3-Carboxymethyl-2-fluoro-phenyl)-5-fluoro-3,4-dihydro-1H-isoquinoline-2-carboxylic acid benzyl ester], for which the IC50 was 25.2 nM.

`CCOC(=O)N1CCc2c(F)ccc(-c3cc(CC(=O)O)ccc3OC)c2C1` [Example 141, 8-(5-Carboxymethyl-2-methoxy-phenyl)-5-fluoro-3,4-dihydro-1H-isoquinoline-2-carboxylic acid ethyl ester] gave a 50% inhibitory concentration (IC50) of 187 nM.

In turn, `CC(C)Oc1ccc(CC(=O)O)cc1-c1ccc(F)c2c1CN(C(=O)CC(C)(C)c1ccccc1)CC2` [Example 291, {3-[5-Fluoro-2-(3-methyl-3-phenyl-butyryl)-1,2,3,4-tetrahydro-isoquinolin-8-yl]-4-isopropoxy-phenyl}-acetic acid] displayed an IC50 of 5.9 nM. This IC50 is about 32-fold lower than that of the compound before.
